Measured values published in patent US9453031B2, “Chemical entities” (Fundación Centro Nacional de Investigaciones Oncológicas …, priority 2013, dated 2016).
pEC50, pIC50: −log10 of the molar value.

What was measured:
[1] = biological target: T1, ATR (Homo sapiens (Human), UniProt Q13535); assay: Cellular ATR inhibition, western blot of CHK1(S345) phosphorylation in hydroxyurea treated cells; type: cell-based; conditions: HT29 cells
Description: In addition to the selective system described above, Example compounds presented here were screened for their ability to inhibit intracellular ATR using a western blot assay to detect phosphorylation of the ATR substrate CHK1(S345) in hydroxyurea treated cells. HT29 cells are plated at 500,000 cells per well in 6-well plates in RPMI media (Sigma R6504) supplemented with 10% foetal bovine serum (Sigma F7524), Penicillin/Streptomycin solution diluted 1:100 (Gibco 15070-063), and fungizone (Gibco, 15290-018), and allowed to adhere overnight at 37° C. in 5% CO2. Compounds are then added to the cell media from a final concentration of 10 μM in 3-fold serial dilutions and the cells are incubated at 37° C. in 5% CO2. After 15 min, hydroxyurea (Sigma H8627) is added to a final concentration of 2.5 mM. After 30 min of treatment with hydroxyurea, the cells are washed in PBS, lysed adding 50 μl of in protein lysis buffer (50 mM Tris pH 7.5, 150 mM NaCl, 1% IGEPAL CO-630 (Sigma, Ref. 542334-100G-A), Phospho Stop (Roche, Ref. 04906837001) and Complete Mini EDTA free (Roche, Ref. 11836170001)). The protein content of the lysates was determined by the modified method of Bradford (Sigma, Ref. B6916). The proteins were resolved by SDS-PAGE and transferred to nitrocellulose membrane (VWR International Eurolab, Ref. 732-4007). The membranes were incubated overnight at 4° C. with antibodies specific for total CHK1 (Santa Cruz Biotechnology, sc-8404), phosphoserine-345 CHK1 (Cell Signaling Technology #2348) they were washed and then incubated with IRDye800 conjugated anti-mouse (Pierce/Cultek, 35521) and Alexa Fluor 680 goat anti-rabbit IgG secondary antibodies (Invitrogen, A21076). The bands were visualized and quantified using an Odyssey infrared imaging system (Li-Cor Biosciences). The percentage of phosphorylated CHK1 vs total CHK1 in cells treated with hydroxyurea was taken as hundred percent of phosphorylation. The percentage of CHK1 phosphorylation is finally plotted against concentration for each compound and EC50s for intracellular ATR inhibition are calculated using ActivityBase from IDBS.

[2] = biological target: T1, ATR; assay: Cellular ATR inhibition, pChk1 Ser345 after UV mimetic 4NQO; type: cell-based; conditions: HT-29, read-out: UV mimetic inhibition of CHK1P at 10 μM (%); 10 μM compound, 3 μM 4NQO, HT29 cells
Source text: (§1) ATM and ATR have distinct and overlapping responses to DNA damage. They must participate together and responses must be coordinated. Both pathways may be activated by ionizing radiation, and UV. As UV treatment is not practical for use in a high throughput cell assay, the UV mimetic 4NQO (Sigma) was chosen to activate the ATR and ATM DNA damage response pathway.
(§2) Chk1, a downstream protein kinase of ATR, has a key role in DNA damage checkpoint control, as well as Chk2 downstream of ATM. […] This assay measures a decrease in phosphorylation of Chk1 (Ser 345) and […] in HT29 colon adenocarcinoma cells following treatment with compound and the UV mimetic 4NQO. Compounds at 1 mM were created by diluting in 100% DMSO and then diluted 1:100 into assay media (RPMI, 10% FCS, 1% glutamine). Cells were plated in 6 well Costar plates at 5×10^5 cells per mL in 2 mL RPMI, 10% FCS, 1% glutamine and grown for 24 hrs. Following addition of compound the cells were incubated for 60 minutes. A final concentration of 3 μM 4NQO (prepared in 100% DMSO) was then added and the cells incubated for a further 60 mins. The cells are lysed and pChk1 Ser345 and pCHK2 Thr68 (Cell Signaling Technology, #2661) versus total CHK1 and CHK2 (Santa Cruz Biotechnology, se-5278) respectively has analysed by western blot as described above. The percentage of phosphorylated CHK1 versus total CHK1 or p-CHK2 versus total CHK2 in cells treated with 4NQO was taken as hundred percent of phosphorylation. The percentage of CHK1 or CHK2 phosphorylation is finally plotted against concentration for each compound and EC50s for intracellular ATR inhibition are calculated using ActivityBase from IDBS.

[3] = biological target: ATM (Homo sapiens (Human), UniProt Q13315); assay: Cellular ATM inhibition, pCHK2 Thr68 after UV mimetic 4NQO; type: cell-based; conditions: HT-29, read-out: UV mimetic inhibition of CHK2P at 10 μM (%); 10 μM compound, 3 μM 4NQO, HT29 cells
Sequence of ATM (Q13315 whole entry): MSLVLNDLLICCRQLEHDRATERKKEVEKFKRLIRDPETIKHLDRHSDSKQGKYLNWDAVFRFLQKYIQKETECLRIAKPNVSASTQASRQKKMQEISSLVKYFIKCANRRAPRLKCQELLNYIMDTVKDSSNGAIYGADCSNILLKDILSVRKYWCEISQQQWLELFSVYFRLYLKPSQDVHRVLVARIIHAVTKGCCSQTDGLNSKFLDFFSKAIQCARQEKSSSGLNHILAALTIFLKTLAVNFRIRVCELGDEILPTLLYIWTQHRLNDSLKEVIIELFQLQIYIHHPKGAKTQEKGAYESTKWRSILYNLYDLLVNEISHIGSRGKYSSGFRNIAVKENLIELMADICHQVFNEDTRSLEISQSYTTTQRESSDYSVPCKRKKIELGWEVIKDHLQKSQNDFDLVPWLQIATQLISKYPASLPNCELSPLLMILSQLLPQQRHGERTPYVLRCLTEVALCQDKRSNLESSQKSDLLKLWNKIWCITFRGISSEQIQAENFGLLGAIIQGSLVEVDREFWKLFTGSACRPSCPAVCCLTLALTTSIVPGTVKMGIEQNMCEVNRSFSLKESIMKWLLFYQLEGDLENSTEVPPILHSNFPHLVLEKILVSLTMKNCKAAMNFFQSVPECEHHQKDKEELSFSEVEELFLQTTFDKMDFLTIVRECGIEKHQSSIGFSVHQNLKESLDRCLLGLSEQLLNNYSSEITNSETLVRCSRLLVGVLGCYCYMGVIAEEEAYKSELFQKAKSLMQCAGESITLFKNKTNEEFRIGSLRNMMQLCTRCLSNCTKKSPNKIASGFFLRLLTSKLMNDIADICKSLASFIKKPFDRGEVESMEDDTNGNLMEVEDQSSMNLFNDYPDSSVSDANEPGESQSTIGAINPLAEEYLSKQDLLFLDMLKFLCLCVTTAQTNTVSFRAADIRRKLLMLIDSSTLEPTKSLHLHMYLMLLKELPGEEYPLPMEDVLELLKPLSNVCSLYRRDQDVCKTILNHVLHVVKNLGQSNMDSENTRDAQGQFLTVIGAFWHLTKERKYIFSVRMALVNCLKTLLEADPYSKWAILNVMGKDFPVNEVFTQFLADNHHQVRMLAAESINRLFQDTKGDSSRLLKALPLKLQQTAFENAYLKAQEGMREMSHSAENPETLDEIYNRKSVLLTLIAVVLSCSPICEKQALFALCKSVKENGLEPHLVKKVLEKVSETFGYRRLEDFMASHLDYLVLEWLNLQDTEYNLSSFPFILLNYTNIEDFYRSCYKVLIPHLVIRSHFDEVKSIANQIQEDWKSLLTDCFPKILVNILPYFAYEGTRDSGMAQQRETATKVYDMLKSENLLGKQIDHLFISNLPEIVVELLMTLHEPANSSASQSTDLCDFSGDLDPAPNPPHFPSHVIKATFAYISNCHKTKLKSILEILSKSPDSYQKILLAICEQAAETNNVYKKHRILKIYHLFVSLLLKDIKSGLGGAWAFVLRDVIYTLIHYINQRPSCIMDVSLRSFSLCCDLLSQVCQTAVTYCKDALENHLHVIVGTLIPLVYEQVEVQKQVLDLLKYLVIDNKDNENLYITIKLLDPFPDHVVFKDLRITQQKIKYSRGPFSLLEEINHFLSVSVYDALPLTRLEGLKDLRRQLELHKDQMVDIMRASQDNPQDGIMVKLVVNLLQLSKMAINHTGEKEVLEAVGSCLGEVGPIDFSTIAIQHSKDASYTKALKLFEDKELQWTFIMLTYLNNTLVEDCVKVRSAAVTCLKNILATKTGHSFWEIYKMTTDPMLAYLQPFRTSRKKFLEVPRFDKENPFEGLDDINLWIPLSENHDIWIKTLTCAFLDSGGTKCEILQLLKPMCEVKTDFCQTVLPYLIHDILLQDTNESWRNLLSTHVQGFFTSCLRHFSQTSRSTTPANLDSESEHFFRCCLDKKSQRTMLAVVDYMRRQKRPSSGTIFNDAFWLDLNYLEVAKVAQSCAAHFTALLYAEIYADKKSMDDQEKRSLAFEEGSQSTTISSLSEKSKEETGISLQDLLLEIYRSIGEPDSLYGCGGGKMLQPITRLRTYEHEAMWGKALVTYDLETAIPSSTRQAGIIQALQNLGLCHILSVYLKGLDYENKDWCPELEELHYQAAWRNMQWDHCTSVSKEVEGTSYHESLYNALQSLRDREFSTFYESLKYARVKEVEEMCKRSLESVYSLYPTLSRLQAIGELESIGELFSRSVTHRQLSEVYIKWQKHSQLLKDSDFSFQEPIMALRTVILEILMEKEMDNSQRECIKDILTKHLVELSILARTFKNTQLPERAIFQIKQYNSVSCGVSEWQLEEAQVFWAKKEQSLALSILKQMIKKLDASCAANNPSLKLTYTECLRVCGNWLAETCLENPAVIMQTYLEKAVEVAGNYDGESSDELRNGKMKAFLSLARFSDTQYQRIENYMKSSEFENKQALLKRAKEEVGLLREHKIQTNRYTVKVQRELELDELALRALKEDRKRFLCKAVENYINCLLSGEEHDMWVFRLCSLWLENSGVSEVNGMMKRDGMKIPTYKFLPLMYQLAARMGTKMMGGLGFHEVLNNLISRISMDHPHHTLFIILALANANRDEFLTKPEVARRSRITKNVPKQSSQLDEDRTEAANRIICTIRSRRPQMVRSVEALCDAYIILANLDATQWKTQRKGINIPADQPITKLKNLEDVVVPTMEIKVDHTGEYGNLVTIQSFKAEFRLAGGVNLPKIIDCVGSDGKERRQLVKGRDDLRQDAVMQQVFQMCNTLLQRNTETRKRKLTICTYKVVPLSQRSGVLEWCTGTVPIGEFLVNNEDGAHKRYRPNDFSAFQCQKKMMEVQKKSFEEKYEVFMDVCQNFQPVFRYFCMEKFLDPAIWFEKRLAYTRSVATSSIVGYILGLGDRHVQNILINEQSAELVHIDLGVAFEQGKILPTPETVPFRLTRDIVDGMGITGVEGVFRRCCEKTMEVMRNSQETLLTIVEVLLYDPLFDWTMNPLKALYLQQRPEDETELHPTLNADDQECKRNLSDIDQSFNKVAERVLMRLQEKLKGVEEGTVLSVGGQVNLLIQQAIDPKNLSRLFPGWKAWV
Source text: as §1, §2

[4] = biological target: mTOR (Homo sapiens (Human), UniProt P42345); assay: mTOR activity assay (LanthaScreen); type: biochemical
Description: The enzymatic mTOR activity was measured using a LanthaScreen™ kinase activity assay (Invitrogen). The enzyme was purchased from Invitrogen (PV4754), as well as the GFP-labelled substrate (4EBP1-GFP; PV4759) and the Tb-antip4EBP1(pThr46) antibody (PV4757). The assay was performed in 50 Mm HEPES buffer, pH 7.5, containing 1.5 mM MnCl2, 10 mM MgCl2, 1 mM EGTA, 2.5 mM DTT and 0.01% Tween-20. The concentration of the assay components were the following: 0.24 nM mTOR kinase, 400 nM 4EBP1-GFP, […] and serial dilutions of the compound (inhibitor) to be evaluated. After 1 h incubation at room temperature, 20 mM EDTA was used to stop the reaction and terbium-labelled antibody (4 nM) added to detect phosphorylated product. The antibody associates with the phosphorylated product resulting in an increased TR-FRET value. The TR-FRET value (a dimensionless number) was calculated as the ratio of the acceptor signal (GFP, emission at 520 nm) to the donor signal (terbium, emission at 495 nm).

[5] = biological target: PI3K (p110α/p85α) (Homo sapiens (Human), UniProt P42336); assay: PI3K alpha activity assay (ADP Hunter Plus); type: biochemical; conditions: 50 μM ATP, 30 μM PIP2; read-out: PI3Kα IC50
Sequence of PI3K (p110α/p85α) (P42336 whole entry): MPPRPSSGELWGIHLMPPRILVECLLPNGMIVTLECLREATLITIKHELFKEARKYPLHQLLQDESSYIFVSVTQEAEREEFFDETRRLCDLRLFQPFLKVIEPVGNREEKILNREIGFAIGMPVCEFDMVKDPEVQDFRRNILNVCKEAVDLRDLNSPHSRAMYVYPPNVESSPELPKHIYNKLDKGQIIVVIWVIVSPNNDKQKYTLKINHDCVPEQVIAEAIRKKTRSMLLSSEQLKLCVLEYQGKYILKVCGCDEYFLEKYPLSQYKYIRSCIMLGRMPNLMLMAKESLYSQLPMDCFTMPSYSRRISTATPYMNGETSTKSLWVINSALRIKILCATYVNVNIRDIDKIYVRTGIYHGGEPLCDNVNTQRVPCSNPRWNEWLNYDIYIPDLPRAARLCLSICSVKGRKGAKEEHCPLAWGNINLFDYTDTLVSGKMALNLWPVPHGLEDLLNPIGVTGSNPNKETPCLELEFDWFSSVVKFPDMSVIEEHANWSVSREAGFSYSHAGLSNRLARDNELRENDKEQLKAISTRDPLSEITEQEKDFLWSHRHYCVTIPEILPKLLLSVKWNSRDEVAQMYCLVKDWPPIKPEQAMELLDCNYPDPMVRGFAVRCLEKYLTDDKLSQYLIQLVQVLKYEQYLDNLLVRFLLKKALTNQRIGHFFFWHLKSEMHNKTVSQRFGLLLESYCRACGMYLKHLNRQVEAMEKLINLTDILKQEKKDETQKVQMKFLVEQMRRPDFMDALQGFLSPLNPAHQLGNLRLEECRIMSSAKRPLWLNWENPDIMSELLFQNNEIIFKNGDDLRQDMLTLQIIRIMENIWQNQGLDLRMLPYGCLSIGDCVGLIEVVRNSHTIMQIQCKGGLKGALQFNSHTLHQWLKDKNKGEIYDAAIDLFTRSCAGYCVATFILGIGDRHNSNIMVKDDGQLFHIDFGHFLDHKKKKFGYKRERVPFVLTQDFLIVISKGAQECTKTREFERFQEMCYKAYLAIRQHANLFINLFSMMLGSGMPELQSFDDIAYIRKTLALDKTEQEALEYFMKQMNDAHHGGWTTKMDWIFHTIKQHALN
Sequence of PI3K (p110α/p85α) (P27986 whole entry partner): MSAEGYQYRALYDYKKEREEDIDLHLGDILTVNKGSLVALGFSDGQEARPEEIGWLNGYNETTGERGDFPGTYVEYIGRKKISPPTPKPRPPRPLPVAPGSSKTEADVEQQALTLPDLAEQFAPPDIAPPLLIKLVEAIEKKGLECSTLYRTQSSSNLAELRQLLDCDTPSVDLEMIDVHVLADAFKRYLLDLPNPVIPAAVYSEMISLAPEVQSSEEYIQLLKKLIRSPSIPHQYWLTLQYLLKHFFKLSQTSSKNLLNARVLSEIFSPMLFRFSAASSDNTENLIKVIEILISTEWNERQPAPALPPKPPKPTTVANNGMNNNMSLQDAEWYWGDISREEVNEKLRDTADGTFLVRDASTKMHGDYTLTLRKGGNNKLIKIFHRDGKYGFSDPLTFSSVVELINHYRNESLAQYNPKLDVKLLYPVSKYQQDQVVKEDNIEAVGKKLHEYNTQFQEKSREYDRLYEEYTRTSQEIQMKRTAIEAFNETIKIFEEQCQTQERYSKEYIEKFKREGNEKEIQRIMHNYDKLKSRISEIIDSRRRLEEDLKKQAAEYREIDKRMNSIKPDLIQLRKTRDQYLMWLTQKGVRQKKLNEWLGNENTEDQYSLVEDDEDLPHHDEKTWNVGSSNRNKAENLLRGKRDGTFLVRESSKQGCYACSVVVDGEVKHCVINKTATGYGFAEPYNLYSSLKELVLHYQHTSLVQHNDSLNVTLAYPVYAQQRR
Description: The kinase activity was measured by using the commercial ADP Hunter™ Plus assay available from DiscoveRx (#33-016), which is a homogeneous assay to measure the accumulation of ADP, a universal product of kinase activity. […] The reaction was carried out for 1 hour at 25° C. Reagent A and B were sequentially added to the wells and plates were incubated for 30 min at 37° C. Fluorescence counts were read in a Victor instrument (Perkin Elmer) with the recommended settings (544 and 580 nm as excitation and emission wavelengths, respectively).

[6] = biological target: DNA-PK (Homo sapiens (Human), UniProt P78527); assay: DNAPK activity assay (ADP Hunter Plus); type: biochemical; conditions: 75 μM ATP
Description: The kinase activity was measured by using the commercial ADP Hunter™ Plus assay available from DiscoveRx (#90-0083), which is a homogeneous assay to measure the accumulation of ADP, a universal product of kinase activity. The enzyme, DNA-PK was purchased from Promega (#V5811). The assay was done following the manufacturer recommendations with slight modifications: Mainly the kinase buffer was replace by 15 mM HEPES, pH 7.5, 10 mM MgCl2, 20 mM NaCl, 1 mM EGTA, 0.1 mg/mL BGG, 0.02% Tween 20. The DNA-PK was assayed in a titration experiment to determine the optimal protein concentration for the inhibition assay. To calculate the […] of the Compounds, serial 1:3 dilutions of the compounds were added to the enzyme at a fixed concentration (2 U/μL). The enzyme was preincubated with the inhibitor and 200 μM DNA substrate and then ATP was added to a final 75 μM concentration. Reaction was carried out for 1 hour at 37° C. Reagent A and B were sequentially added to the wells and plates were incubated for 30 min at RT. Fluorescence counts were read in a EnVision instrument (Perkin Elmer) with the recommended settings (550 and 590 nm as excitation and emission wavelengths, respectively).

SMILES	pEC50 ([1]; hydroxyurea 2.5 mM)	inhibition at 10 µM [2] [%]	inhibition at 10 µM [3] [%]	pIC50 [4]	pIC50 [5]	pIC50 [6]	pEC50 ([1]; hydroxyurea […])
O=S(=O)(Cc1nc(-c2cccc3[nH]ccc23)nc2c1OCC1COCCN21)C(F)(F)F (centres unmarked) [Example 5]	6.00 to 7.00	98	0	–	–	–	–
CC(C)(c1nc(-c2cccc3[nH]ccc23)nc2c1OCC1COCCN21)S(C)(=O)=O (centres unmarked) [Example 1]	> 7.00	99	0	–	–	–	–
C[C@@H]1CN(CC(=O)Nc2ccc3c(c2)Cc2cccc(-c4cc(=O)cc(N5CCOCC5)o4)c2S3)C[C@H](C)O1 [ATM inhibitor KU-60019, reference compound]	–	38	99	–	–	–	–
CC(C)(c1nc(-c2ccc(F)c3[nH]ccc23)nc2c1OC[C@@H]1COCCN21)S(C)(=O)=O [Example 102]	< 6.00	–	–	5.74	4.30	7.00	–
CS(=O)(=O)C1(c2nc(-c3cc(C(F)(F)F)cc4[nH]ccc34)nc3c2OC[C@@H]2COCCN32)CCC1 [Example 112]	6.00 to 7.00	–	–	6.63	4.71	5.00	–
CC(C)(c1nc(-c2cc(C(F)(F)F)cc3[nH]ccc23)nc2c1OC[C@@H]1COCCN21)S(C)(=O)=O [Example 101]	6.00 to 7.00	–	–	6.64	4.90	5.00	–
CNc1nc2cc(Cl)ccc2n1-c1nc2c(c(C3(S(C)(=O)=O)CC3)n1)OC[C@@H]1COCCN21 [Example 86]	–	–	–	5.47	4.30	5.00	< 6.00
CNc1nc2ccccc2n1-c1nc2c(c(C(C)(C)S(C)(=O)=O)n1)OCC[C@@H]1COCCN21 [Example 62]	6.00 to 7.00	–	–	5.18	4.79	5.00	–
CNc1nc2ccccc2n1-c1nc2c(c(C3(S(C)(=O)=O)CCC3)n1)OC[C@@H]1COCCN21 [Example 92]	> 7.00	–	–	5.91	5.56	5.21	–
CC(C)(c1nc(-c2cc(F)cc3[nH]ccc23)nc2c1OC[C@@H]1COCCN21)S(C)(=O)=O [Example 71]	> 7.00	–	–	7.00	5.97	5.00	–
CNc1nc2ccc(Cl)cc2n1-c1nc2c(c(C(C)(C)S(C)(=O)=O)n1)OC[C@@H]1COCCN21 [Example 81]	–	–	–	5.26	4.30	5.00	< 6.00
CS(=O)(=O)C1(c2nc(-c3ccnc4[nH]ccc34)nc3c2OC[C@@H]2COCCN32)CCOCC1 [Example 30]	6.00 to 7.00	–	–	5.33	5.60	4.60	–
CNc1nc2ccc(F)cc2n1-c1nc2c(c(C3(S(C)(=O)=O)CCC3)n1)OC[C@@H]1COCCN21 [Example 97]	–	–	–	5.17	4.30	5.17	6.00 to 7.00
CNc1nc2cc(Cl)ccc2n1-c1nc2c(c(C(C)(C)S(C)(=O)=O)n1)OC[C@@H]1COCCN21 [Example 80]	–	–	–	6.30	4.88	5.00	< 6.00
CNc1nc2ccc(F)cc2n1-c1nc2c(c(C(C)(C)S(C)(=O)=O)n1)OC[C@@H]1COCCN21 [Example 83]	–	–	–	5.61	4.91	5.51	6.00 to 7.00
COc1cc(-c2nc3c(c(C(C)(C)S(C)(=O)=O)n2)OC[C@@H]2COCCN32)c2cc[nH]c2c1 [Example 72]	6.00 to 7.00	–	–	7.34	6.09	5.80	–
COc1cc(-c2nc3c(c(C4(S(C)(=O)=O)CC4)n2)OC[C@@H]2COCCN32)c2cc[nH]c2c1 [Example 75]	6.00 to 7.00	–	–	7.03	5.60	5.74	–
COc1cc(-c2nc3c(c(C(C)(C)O)n2)OC[C@@H]2COCCN32)c2cc[nH]c2c1 [Example 46]	6.00 to 7.00	–	–	7.42	6.32	5.55	–
